Results published in patent US20240158446A1, “CYCLIC COMPOUND HAVING SELECTIVE INHIBITORY ACTION ON KRAS OVER HRAS AND NRAS” (CHUGAI SEIYAKU KABUSHIKI KAISHA, priority 2021, published 2024).
Where two headings read alike, the source gives them in different places.

Key:
[1] = target: GDP-bound KRAS wild-type protein (Homo sapiens, UniProt P01116); test: Binding to KRAS by surface plasmon resonance (SPR), Single Cycle Kinetics; details: GDP-bound KRAS wild-type protein, read-out: KRAS KD
[2] = target: GDP-bound NRAS wild-type protein (Homo sapiens, UniProt P01111); test: Binding to NRAS by surface plasmon resonance (SPR), Single Cycle Kinetics; details: for NRAS/KRAS (ratio of KD value with respect to GDP-bound NRAS wild-type protein to KD value with respect to KRAS): SPR KD ratio NRAS/KRAS, class symbols; for NRAS/KRAS (ratio of KD value for NRAS to KD value for KRAS): SPR, GDP-bound NRAS wild-type protein vs GDP-bound KRAS wild-type protein
GDP-bound NRAS wild-type protein, sequence (P01111 whole entry): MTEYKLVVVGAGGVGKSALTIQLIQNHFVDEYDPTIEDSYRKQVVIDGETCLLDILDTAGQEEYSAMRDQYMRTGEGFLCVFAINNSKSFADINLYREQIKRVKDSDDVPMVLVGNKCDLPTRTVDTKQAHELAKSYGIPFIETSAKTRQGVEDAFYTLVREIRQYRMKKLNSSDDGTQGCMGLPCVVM

[3] = tested on: human lung cancer strain NCI-H441;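 further: cell proliferation inhibition after four days measured by CellTiter-Glo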
[4] = target: GDP-bound HRAS wild-type protein (Homo sapiens, UniProt P01112); test: Binding to HRAS by surface plasmon resonance (SPR), Single Cycle Kinetics; details: for HRAS/KRAS (ratio of KD value with respect to GDP-bound HRAS wild-type protein to KD value with respect to KRAS): SPR KD ratio HRAS/KRAS, class symbols; for HRAS/KRAS (ratio of KD value for HRAS to KD value for KRAS): SPR, GDP-bound HRAS wild-type protein vs GDP-bound KRAS wild-type protein
GDP-bound HRAS wild-type protein, sequence (P01112 whole entry): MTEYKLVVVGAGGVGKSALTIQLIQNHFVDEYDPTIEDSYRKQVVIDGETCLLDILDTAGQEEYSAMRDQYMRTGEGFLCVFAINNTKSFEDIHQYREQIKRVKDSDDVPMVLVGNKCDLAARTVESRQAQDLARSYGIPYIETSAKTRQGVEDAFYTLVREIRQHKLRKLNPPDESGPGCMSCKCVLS

[5] = SPR Single Cycle Kinetics, 1:1 binding model
[6] = SPR, Single Cycle Kinetics, 1:1 binding model

GDP-bound KRAS wild-type protein, sequence (P01116 whole entry): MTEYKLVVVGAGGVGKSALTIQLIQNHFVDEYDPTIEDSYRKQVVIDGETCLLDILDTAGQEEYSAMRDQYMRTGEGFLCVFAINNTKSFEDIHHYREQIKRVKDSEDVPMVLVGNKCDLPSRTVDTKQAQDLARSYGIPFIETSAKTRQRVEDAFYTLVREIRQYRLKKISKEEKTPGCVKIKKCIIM

SMILES	Kd [1, 5] [nM]	NRAS/KRAS (ratio of KD value with respect to GDP-bound NRAS wild-type protein to KD value with respect to KRAS) [2]	IC50 [3] [nM]	HRAS/KRAS (ratio of KD value with respect to GDP-bound HRAS wild-type protein to KD value with respect to KRAS) [4]	Kd [1, 6] [nM]	NRAS/KRAS (ratio of KD value for NRAS to KD value for KRAS) ([2]; KD ratio class)	HRAS/KRAS (ratio of KD value for HRAS to KD value for KRAS) ([4]; KD ratio class)	Kd ([1]; SPR, Single Cycle Kinetics) [nM]	NRAS/KRAS (ratio of KD value for NRAS to KD value for KRAS) [2]	HRAS/KRAS (ratio of KD value for HRAS to KD value for KRAS) [4]
CCC[C@H]1C(=O)N[C@@H]([C@@H](C)CC)C(=O)N(C2CC2)CC(=O)N(C)[C@H]2C/C=C\CCN(C2=O)[C@@H](CC2CCC(F)(F)CC2)C(=O)N(C)CC(=O)N[C@@H](CCc2ccc(Cl)c(Cl)c2)C(=O)N2C[C@H](OCC)C[C@H]2C(=O)NC2(CC(C)(C)C2)C(=O)N(C)[C@@H](C2CCCC2)C(=O)N(C)[C@H](C(=O)N(C)C)CC(=O)N1C [PP2567]	1.9	A (a compound having 10 or more and less than 20 is denoted as A)	102	A (a compound having 10 or more and less than 20 is denoted as A)						
CC[C@H](C)[C@@H]1NC(=O)[C@H](COC)N(C)C(=O)C[C@@H](C(=O)N(C)C)N(C)C(=O)[C@H](C2CCCC2)N(C)C(=O)C2(CC(C)(C)C2)NC(=O)[C@@H]2C[C@@H](OC3CCC3)CN2C(=O)[C@H](CCc2cc(F)c(C(F)(F)F)c(F)c2)NC(=O)CN(C)C(=O)[C@H](CC2CCC(F)(F)CC2)N2CC/C=C\C[C@@H](C2=O)N(C)C(=O)CN(C2CC2)C1=O [PP2622]	0.53	A (a compound having 10 or more and less than 20 is denoted as A)	43.8	B (a compound having 3 or more and less than 10 is denoted as B)						
CCO[C@@H]1C[C@H]2C(=O)NC3(CCC3)C(=O)N(C)[C@@H](C3CCCC3)C(=O)N(C)[C@H](C(=O)N(C)C)CC(=O)N(C)[C@@H](CC3CC3)C(=O)N[C@@H]([C@@H](C)CC)C(=O)N(C)CC(=O)N(C)[C@H]3C/C=C\CCN(C3=O)[C@@H](Cc3ccc(F)cc3)C(=O)N(C)CC(=O)N[C@@H](CCc3cc(F)c(C(F)(F)F)c(F)c3)C(=O)N2C1 [PP1529, (2S,8S,12R,14S,20S,23S,27S,30S,36S,38Z)-20-cyclopentyl-27-(cyclopropylmethyl)-8-[2-[3,5-difluoro-4-(trifluoromethyl)phenyl]ethyl]-12-ethoxy-2-[(4-fluorophenyl)methyl]-N,N,4,19,22,26,32,35-octamethyl-30-[(1S)-1-methylpropyl]-3,6,9,15,18,21,25,28,31,34,42-undecaoxo-spiro[1,4,7,10,16,19,22,26,29,32,35-undecazatricyclo[34.5.1.0^10,14]dotetracont-38-ene-17,1′-cyclobutane]-23-carboxamide]			30.2		0.081	A (a compound having 10 or more and less than 20 is denoted as A)	B (a compound having 3 or more and less than 10 is denoted as B)			
CCO[C@@H]1C[C@H]2C(=O)NC3(CCC3)C(=O)N(C)[C@@H](C3CCCC3)C(=O)N(C)[C@H](C(=O)N3CCOCC3)CC(=O)N(C)[C@@H](CC(C)C)C(=O)N[C@@H]([C@@H](C)CC)C(=O)N3CC[C@H]3C(=O)N(C)[C@H]3C[C@@H](C)[C@@H](C)CN(C3=O)[C@@H](Cc3ccc(C(F)(F)F)cc3)C(=O)N(C)CC(=O)N[C@@H](CCc3cc(F)c(C(F)(F)F)c(F)c3)C(=O)N2C1 [PP1355]			10.2		0.16	A (a compound having 10 or more and less than 20 is denoted as A)	B (a compound having 3 or more and less than 10 is denoted as B)			
CCO[C@@H]1C[C@H]2C(=O)NC3(CCC3)C(=O)N(C)[C@@H](C3CCCC3)C(=O)N(C)[C@H](C(=O)N3CCCC3)CC(=O)N(C)[C@@H](CC3CCC3)C(=O)N[C@@H]([C@@H](C)CC)C(=O)N(C)CC(=O)N(C)[C@H]3C/C=C\CCN(C3=O)[C@@H](Cc3ccc(C(F)(F)F)cc3)C(=O)N(C)CC(=O)N[C@@H](CCc3cc(F)c(C(F)(F)F)c(F)c3)C(=O)N2C1 [PP1423]			4.4		0.14	AA (a compound having 20 or more is denoted as AA)	A (a compound having 10 or more and less than 20 is denoted as A)			
CCOC[C@H]1C(=O)N[C@@H]([C@@H](C)CC)C(=O)N(C)CC(=O)N(C)[C@H]2C/C=C\CCN(C2=O)[C@@H](Cc2ccc(C)cc2)C(=O)N(C)CC(=O)N[C@@H](CCc2cc(F)c(C(F)(F)F)c(F)c2)C(=O)N2C[C@H](OCC)C[C@H]2C(=O)NC2(CC(C)(C)C2)C(=O)N(C)[C@@H](C2CCCC2)C(=O)N(C)[C@H](C(=O)N(C)CC)CC(=O)N1C [PP2404]			4.1					0.09	A (a compound having 10 or more and less than 20 is denoted as A)	A (a compound having 10 or more and less than 20 is denoted as A)
CCC[C@H]1C(=O)N[C@@H]([C@@H](C)CC)C(=O)N2CCC[C@H]2C(=O)N(C)[C@H]2C/C=C\CCN(C2=O)[C@@H](CC2CCC(F)(F)CC2)C(=O)N(C)CC(=O)N[C@@H](CCc2ccc(C(F)(F)F)c(OC)c2)C(=O)N2C[C@@H](C)C[C@H]2C(=O)N(C)C2(CCC2)C(=O)N(C)[C@@H](C2CCCC2)C(=O)N(C)[C@H](C(=O)N(C)C)CC(=O)N1C [PP2380]			2.1					0.85	A (a compound having 10 or more and less than 20 is denoted as A)	A (a compound having 10 or more and less than 20 is denoted as A)
CCC[C@H]1C(=O)N[C@@H]([C@@H](C)CC)C(=O)N(C)CC(=O)N(C)[C@H]2C/C=C\CCN(C2=O)[C@@H](Cc2ccc(C(F)F)cc2)C(=O)N(C)CC(=O)N[C@@H](CCc2ccc(Cl)c(Cl)c2)C(=O)N2C[C@H](OC(C)C)C[C@H]2C(=O)NC2(CC(C)(C)C2)C(=O)N(C)[C@@H](C(CC)CC)C(=O)N(C)[C@H](C(=O)N(C)C)CC(=O)N1C [PP2535]	0.54	AA (a compound having 20 or more is denoted as AA)	26.8	A (a compound having 10 or more and less than 20 is denoted as A)						
CCO[C@@H]1C[C@H]2C(=O)NC3(CCC3)C(=O)N(C)[C@@H](C3CCCC3)C(=O)N(C)[C@H](C(=O)N(C)C)CC(=O)N(C)[C@@H](CSC)C(=O)N[C@@H]([C@@H](C)CC)C(=O)N(C)CC(=O)N(C)[C@H]3C/C=C\CCN(C3=O)[C@@H](CC3CCCCC3)C(=O)N(C)CC(=O)N[C@@H](CCc3cc(F)c(C(F)(F)F)c(F)c3)C(=O)N2C1 [PP1463, (2S,8S,12R,14S,20S,23S,27R,30S,36S,38Z)-2-(cyclohexylmethyl)-20-cyclopentyl-8-[2-[3,5-difluoro-4-(trifluoromethyl)phenyl]ethyl]-12-ethoxy-N,N,4,19,22,26,32,35-octamethyl-30-[(1S)-1-methylpropyl]-27-(methylsulfanylmethyl)-3,6,9,15,18,21,25,28,31,34,42-undecaoxo-spiro[1,4,7,10,16,19,22,26,29,32,35-undecazatricyclo[34.5.1.0^10,14]dotetracont-38-ene-17,1′-cyclobutane]-23-carboxamide]			44.5		0.13	A (a compound having 10 or more and less than 20 is denoted as A)	A (a compound having 10 or more and less than 20 is denoted as A)			
CC[C@H](C)[C@@H]1NC(=O)[C@H](CC)N(C)C(=O)C[C@@H](C(=O)N(C)C)N(C)C(=O)[C@H](C2CCCC2)N(C)C(=O)C2(CCC2)NC(=O)[C@@H]2CCN2C(=O)[C@H](CCc2cc(F)c(C(F)(F)F)c(F)c2)NC(=O)CN(C)C(=O)[C@H](Cc2ccc(C(F)(F)F)cc2)N2CC/C=C\C[C@@H](C2=O)N(C)C(=O)CN(C)C1=O [PP1139]			297					0.43	A (a compound having 10 or more and less than 20 is denoted as A)	A (a compound having 10 or more and less than 20 is denoted as A)
CCC[C@H]1C(=O)N[C@@H]([C@@H](C)CC)C(=O)N2C[C@@H](OC)C[C@H]2C(=O)N(C)[C@H]2C/C=C\CCN(C2=O)[C@@H](Cc2ccc(C)cc2)C(=O)N(C)CC(=O)N[C@@H](CCc2cc(F)c(C(F)(F)F)c(F)c2)C(=O)N2C[C@H](OCC)C[C@H]2C(=O)NC2(CCC2)C(=O)N(C)[C@@H](C2CCCC2)C(=O)N(C)[C@H](C(=O)N(C)C)CC(=O)N1C [PP2550]	0.29	A (a compound having 10 or more and less than 20 is denoted as A)	38.5	B (a compound having 3 or more and less than 10 is denoted as B)						
